From publication PMC10999543, “Identification of kinase modulators as host-directed therapeutics against intracellular methicillin-resistant Staphylococcus aureus” (Frontiers in Cellular and Infection Microbiology, 2024)
Like-named read-outs stand apart in the source and are kept apart here.

Experiments:
intracellular MRSA = assay type: cell-based, Staphylococcus aureus; settings: for %GFP+ rep 1 / z-scoreMRSA+ rep 1: replicate 1; for %GFP+ rep 2 / z-scoreMRSA+ rep 2: replicate 2; for %GFP+ rep 3 / z-scoreMRSA+ rep 3: replicate 3; for z-scoreMRSA+ mean: mean of 3 replicates
Summary of the method: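 HeLa cells were infected with GFP-expressing MRSA (mean MOI 6.8) for 1 h, treated with 30 µg/ml gentamicin for 15 min, then incubated overnight at 37°C with kinase inhibitors and 5 µg/ml gentamicin. Flow cytometry gave % GFP-positive cells, with cell count as viability. Hits were z-score ≤ -2 (infection) and ≥ -3 (count) versus DMSO.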

HeLa cells = test: Compound screen by flow cytometry: HeLa cell count as surrogate readout of cell viability (z-scoreHeLa); assay type: cell-based, human; settings: for cell count rep 1 / z-scoreHeLa rep 1: replicate 1; for cell count rep 2 / z-scoreHeLa rep 2: replicate 2; for cell count rep 3 / z-scoreHeLa rep 3: replicate 3; for z-scoreHeLa mean: mean of 3 replicates
Summary of the method: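 The viability surrogate was the count of fixed HeLa cells by flow cytometry, converted to z-scores against DMSO controls with values deviating two-fold excluded. Before counting, cells had been infected with MRSA for 1 h and cleared of extracellular bacteria with gentamicin. They were then exposed overnight to kinase inhibitors in triplicate.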

[1] = PKIS compound screen raw data, MRSA-infected HeLa cells
[2] = PKIS compound screen, MRSA-infected HeLa cells
[3] = PKIS compound screen, Yes/No call
[4] = PKIS compound screen, Yes/No call (effect without cell death)
[5] = PKIS compound screen, Yes/No call on z-scoreMRSA+
[6] = PKIS compounds raw data, MRSA-infected HeLa cells
[7] = PKIS compound screen raw data, HeLa cell count
[8] = PKIS compound screen, HeLa cell count
[9] = PKIS compound screen, Yes/No call on z-scoreHeLa
[10] = PKIS compounds raw data, HeLa cell count
[11] = Yes/No: effect without cell death
[12] = compound screen, MRSA-infected HeLa cells
[13] = compound screen, HeLa cell count

Row | SMILES | %GFP+ rep 1 (intracellular MRSA; [1]) | %GFP+ rep 2 (intracellular MRSA; [1]) | %GFP+ rep 3 (intracellular MRSA; [1]) | z-scoreMRSA+ mean (intracellular MRSA; [2]) | z-scoreMRSA+ rep 1 (intracellular MRSA; [2]) | z-scoreMRSA+ rep 2 (intracellular MRSA; [2]) | z-scoreMRSA+ rep 3 (intracellular MRSA; [2]) | hit (intracellular MRSA; [4]) | effect (intracellular MRSA; [5]) | %GFP+ rep 1 (intracellular MRSA; [6]) | %GFP+ rep 2 (intracellular MRSA; [6]) | %GFP+ rep 3 (intracellular MRSA; [6]) | cell count rep 1 (HeLa cells; [7]) | cell count rep 2 (HeLa cells; [7]) | cell count rep 3 (HeLa cells; [7]) | z-scoreHeLa mean (HeLa cells; [8]) | z-scoreHeLa rep 1 (HeLa cells; [8]) | z-scoreHeLa rep 2 (HeLa cells; [8]) | z-scoreHeLa rep 3 (HeLa cells; [8]) | cell death (HeLa cells; [9]) | also measured
1 | Fc1cc(Cl)ccc1Nc1ccnc2cc(-c3ccc(CN4CCOCC4)o3)ccc12 [GW560109X] | 14.2% | 18.0% | 17.4% | -0.89 | -1.22 | -0.38 | -1.05 | No | No | 28.9% | 24.6% | 27.6% | 37673 | 25490 | 23726 | 0.75 | 1.27 | 0.037 | 0.94 | No | effect (intracellular MRSA; [3]): No; z-scoreMRSA+ mean (intracellular MRSA; PKIS compound screen): 0.05; z-scoreMRSA+ rep 1 (intracellular MRSA; PKIS compound screen): 0.36; z-scoreMRSA+ rep 2 (intracellular MRSA; PKIS compound screen): -0.28; z-scoreMRSA+ rep 3 (intracellular MRSA; PKIS compound screen): 0.06; cell death (HeLa cells; [3]): No; z-scoreHeLa mean (HeLa cells; PKIS compound screen): 0.33; z-scoreHeLa rep 1 (HeLa cells; PKIS compound screen): -0.12; z-scoreHeLa rep 2 (HeLa cells; PKIS compound screen): 0.0321; z-scoreHeLa rep 3 (HeLa cells; PKIS compound screen): 1.09; cell count rep 1 (HeLa cells; [10]): 5844; cell count rep 2 (HeLa cells; [10]): 6056; cell count rep 3 (HeLa cells; [10]): 7316
2 | Fc1cc(Cl)ccc1Nc1ccnc2cc(-c3ccc(CN4CCCCC4)o3)ccc12 [GW560116X] | 26.5% | 26.3% | 25.6% | – | – | – | – | – | – | – | – | – | 2203 | 2204 | 1264 | – | – | – | – | – | effect (intracellular MRSA; Yes/No call from z-scoreMRSA+): No; hit (intracellular MRSA; [11]): No; z-scoreMRSA+ mean (intracellular MRSA; [12]): 0.73; z-scoreMRSA+ rep 1 (intracellular MRSA; [12]): 0.29; z-scoreMRSA+ rep 2 (intracellular MRSA; [12]): 0.89; z-scoreMRSA+ rep 3 (intracellular MRSA; [12]): 1.02; cell death (HeLa cells; Yes/No call from z-scoreHeLa): No; z-scoreHeLa mean (HeLa cells; [13]): -1.89; z-scoreHeLa rep 1 (HeLa cells; [13]): -1.55; z-scoreHeLa rep 2 (HeLa cells; [13]): -1.61; z-scoreHeLa rep 3 (HeLa cells; [13]): -2.51
3 | c1ccc(Oc2ccc(Nc3ccnc4cc(-c5ccc(CN6CCNCC6)o5)ccc34)cc2)nc1 [GW567142A] | 18.2% | 19.4% | 17.4% | -0.40 | -0.15 | -0.00228 | -1.05 | No | No | – | – | – | 37910 | 29813 | 27656 | 1.26 | 1.31 | 0.78 | 1.70 | No | –
4 | c1ccc(Oc2ccc(Nc3ccnc4cc(-c5ccc(CNCCN6CCOCC6)o5)ccc34)cc2)nc1 [GW567145X] | 20.5% | 21.2% | 22.8% | 0.46 | 0.46 | 0.49 | 0.43 | No | No | 25.1% | 24.1% | 25.1% | 29321 | 19879 | 15455 | -0.58 | -0.15 | -0.93 | -0.68 | No | effect (intracellular MRSA; [3]): No; z-scoreMRSA+ mean (intracellular MRSA; PKIS compound screen): -0.39; z-scoreMRSA+ rep 1 (intracellular MRSA; PKIS compound screen): -0.38; z-scoreMRSA+ rep 2 (intracellular MRSA; PKIS compound screen): -0.37; z-scoreMRSA+ rep 3 (intracellular MRSA; PKIS compound screen): -0.40; cell death (HeLa cells; [3]): No; z-scoreHeLa mean (HeLa cells; PKIS compound screen): 0.19; z-scoreHeLa rep 1 (HeLa cells; PKIS compound screen): 0.019; z-scoreHeLa rep 2 (HeLa cells; PKIS compound screen): 0.89; z-scoreHeLa rep 3 (HeLa cells; PKIS compound screen): -0.32; cell count rep 1 (HeLa cells; [10]): 6078; cell count rep 2 (HeLa cells; [10]): 7342; cell count rep 3 (HeLa cells; [10]): 5085
5 | OCCCNc1nccc(-c2c(-c3ccc(F)cc3)nn3cc(C(F)(F)F)ccc23)n1 [GW569293E] | 17.0% | 16.9% | 19.3% | -0.30 | -0.27 | -0.49 | -0.15 | No | No | – | – | – | 13158 | 40183 | 38241 | -0.14 | -1.06 | 1.01 | -0.36 | No | –
6 | Cc1ccc(Nc2ccnc(Nc3cccc(C(N)=O)c3)n2)cc1O [GW575808A] | 13.4% | 14.8% | 16.1% | -1.22 | -1.41 | -1.12 | -1.12 | No | No | – | – | – | 19398 | 38059 | 43165 | 0.31 | -0.11 | 0.61 | 0.42 | No | –
7 | COc1cc(Nc2ccnc3ccc(C(F)(F)F)cc23)cc(OC)c1OC [GW577382X] | 19.6% | 17.8% | 18.8% | – | – | – | – | – | – | – | – | – | 2914 | 2336 | 2608 | – | – | – | – | – | effect (intracellular MRSA; Yes/No call from z-scoreMRSA+): No; hit (intracellular MRSA; [11]): No; z-scoreMRSA+ mean (intracellular MRSA; [12]): -1.17; z-scoreMRSA+ rep 1 (intracellular MRSA; [12]): -1.32; z-scoreMRSA+ rep 2 (intracellular MRSA; [12]): -1.17; z-scoreMRSA+ rep 3 (intracellular MRSA; [12]): -1.02; cell death (HeLa cells; Yes/No call from z-scoreHeLa): No; z-scoreHeLa mean (HeLa cells; [13]): -1.40; z-scoreHeLa rep 1 (HeLa cells; [13]): -1.04; z-scoreHeLa rep 2 (HeLa cells; [13]): -1.51; z-scoreHeLa rep 3 (HeLa cells; [13]): -1.66
8 | COc1cc(/C=N/Nc2ncnc3[nH]ncc23)ccc1O [GW578748X] | – | – | – | – | – | – | – | No | – | 10.3% | 10.1% | 10.9% | – | – | – | – | – | – | – | – | effect (intracellular MRSA; [3]): No; z-scoreMRSA+ mean (intracellular MRSA; PKIS compound screen): -1.18; z-scoreMRSA+ rep 1 (intracellular MRSA; PKIS compound screen): -0.92; z-scoreMRSA+ rep 2 (intracellular MRSA; PKIS compound screen): -1.14; z-scoreMRSA+ rep 3 (intracellular MRSA; PKIS compound screen): -1.48; cell death (HeLa cells; [3]): No; z-scoreHeLa mean (HeLa cells; PKIS compound screen): 0.25; z-scoreHeLa rep 1 (HeLa cells; PKIS compound screen): -0.52; z-scoreHeLa rep 2 (HeLa cells; PKIS compound screen): 1.00; z-scoreHeLa rep 3 (HeLa cells; PKIS compound screen): 0.26; cell count rep 1 (HeLa cells; [10]): 4206; cell count rep 2 (HeLa cells; [10]): 5592; cell count rep 3 (HeLa cells; [10]): 7495
9 | CS(=O)(=O)CCNCc1nc(-c2ccc3ncnc(Nc4ccc(OCc5ccccc5)c(Cl)c4)c3c2)cs1 [GW582764A] | 15.6% | 19.2% | 19.4% | – | – | – | – | – | – | – | – | – | 3605 | 3519 | 4776 | – | – | – | – | – | effect (intracellular MRSA; Yes/No call from z-scoreMRSA+): No; hit (intracellular MRSA; [11]): No; z-scoreMRSA+ mean (intracellular MRSA; [12]): -1.31; z-scoreMRSA+ rep 1 (intracellular MRSA; [12]): -2.25; z-scoreMRSA+ rep 2 (intracellular MRSA; [12]): -0.83; z-scoreMRSA+ rep 3 (intracellular MRSA; [12]): -0.84; cell death (HeLa cells; Yes/No call from z-scoreHeLa): No; z-scoreHeLa mean (HeLa cells; [13]): -0.48; z-scoreHeLa rep 1 (HeLa cells; [13]): -0.54; z-scoreHeLa rep 2 (HeLa cells; [13]): -0.60; z-scoreHeLa rep 3 (HeLa cells; [13]): -0.29
10 | CS(=O)(=O)CCNCc1nc(-c2ccc3ncnc(Nc4ccc(OCc5cccc(F)c5)c(Cl)c4)c3c2)cs1 [GW583340C] | – | – | – | – | – | – | – | – | – | 17.5% | 15.0% | 17.3% | – | – | – | – | – | – | – | – | effect (intracellular MRSA; Yes/No call from z-scoreMRSA+): No; hit (intracellular MRSA; [11]): No; z-scoreMRSA+ mean (intracellular MRSA; [12]): -1.71; z-scoreMRSA+ rep 1 (intracellular MRSA; [12]): -1.81; z-scoreMRSA+ rep 2 (intracellular MRSA; [12]): -1.85; z-scoreMRSA+ rep 3 (intracellular MRSA; [12]): -1.47; cell count rep 1 (HeLa cells; [10]): 5969; cell count rep 2 (HeLa cells; [10]): 5507; cell count rep 3 (HeLa cells; [10]): 7162; cell death (HeLa cells; Yes/No call from z-scoreHeLa): No; z-scoreHeLa mean (HeLa cells; [13]): 1.10; z-scoreHeLa rep 1 (HeLa cells; [13]): 1.17; z-scoreHeLa rep 2 (HeLa cells; [13]): 0.93; z-scoreHeLa rep 3 (HeLa cells; [13]): 1.22
11 | CN(C)CCCNc1nccc(-c2c(-c3ccc(F)cc3)nn3cc(C(F)(F)F)ccc23)n1 [GW618013A] | 10.7% | 13.4% | 14.0% | -1.86 | -2.27 | -1.54 | -1.76 | No | No | – | – | – | 23652 | 24495 | 45248 | -0.21 | 0.54 | -1.92 | 0.75 | No | –
